Results: article PMC6906117, “Desolvation of the substrate-binding protein TauA dictates ligand specificity for the alkanesulfonate ABC importer TauABC” (Biochemical Journal, 2019)
“Also recorded” adds a separate entry of the source. Like-named read-outs stand apart in the source and are kept apart here. Marks after values point to notes of the source that are not given here.

Tests used:
[1] = target: T1, TauA (Escherichia coli, UniProt Q47537); test: Isothermal titration calorimetry, ligand binding to wild-type TauA; design: species or system E. coli
T1 construct: His tag with TEV site (pEHisTEV vector) (cleaved yes); made in house; host or cells: E. coli BL21 (DE3)
Method: The gene encoding for the mature TauA from E. coli (accession number: K12-Q47537) was cloned into the pEHisTEV vector. BL21 (DE3) cells transformed with pEHisTEVtauA plasmid were grown at 310 K. Isopropyl β-D-1-thiogalactopyranoside was added to a final concentration of 0.5 mM when the culture reached an OD600 of 0.6, and the growth continued at 298 K for 18 h. Cells were harvested by centrifugation (6000×g) and resuspended in PBS supplemented with 20 mM imidazole and 3 mM MgCl2. Cells were lysed by sonication (10 cycles; 10 s per cycle with 10 s interval on ice) followed by centrifugation at 30 000 g for 1 h. The supernatant was subjected to Ni-NTA affinity chromatography followed by overnight dialysis with TEV protease and size exclusion chromatography using a Superdex S-200 column equilibrated with 20 mM Tris (pH 7.5) and 150 mM NaCl. […] SDS–PAGE indicated high purity.
(§1) Binding of ligands to TauA and mutants was measured at 298 K using ITC (MicroCal iTC200 microcalorimeter, Malvern Instruments). The protein buffer was in 20 mM Tris (pH 7.5) and 150 mM NaCl (ITC buffer). Protein and ligands were diluted to desired concentrations using ITC buffer. The pH of protein and ligand was adjusted at 277 K. An amount of 200 µl of protein and 60 µl of ligand was added into the sample cell and injection syringe, respectively. Seventeen 2.4 µl injections were performed with a pre-injection of 0.5 µl, a 180 s interval and an injection speed of 0.5 µl/s. Control experiments were performed where ligand was injected into ITC buffer. The heat of interaction was obtained by subtracting control measurements (heat of dilution) from the experimental measurements. The baseline was generated and the concentration-normalized binding isotherm was integrated using the MicroCal Origin software (version 7). The first injection peak was deleted from the isotherm. The isotherm was fitted to a single-site binding model. Values of binding constant (Ka, M^−1), enthalpy change (ΔH, J/mol) and binding stoichiometry (n) were allowed to vary (unless mentioned specifically) during the fitting procedure. The dissociation constant (Kd, M) and entropy change (ΔS, J/mol/K) were derived from Ka, ΔH and n accordingly. The Kd value is derived from the absolute value of Ka (Kd = 1/Ka).

[2] = target: TauA Asp205Ala (Escherichia coli, UniProt Q47537, D205A); test: biochemical; assay type: binding, E. coli; conditions: Asp205Ala mutant
Method: (§2) Alanine-substituted TauA mutants (Gln30Ala, Glu106Ala, Thr132Ala and Asp205Ala) were generated by PCR using the QuikChange Lightning Site-Directed Mutagenesis Kit (Agilent Technologies). Mutations were confirmed by DNA sequencing. Mutants were expressed and purified as for the wild-type TauA.
as §1

[3] = target: TauA Gln30Ala (Escherichia coli, UniProt Q47537, Q30A); test: biochemical; assay type: binding, E. coli; conditions: ITC, Gln30Ala mutant
Method: as §2, §1

[4] = target: TauA Thr132Ala (Escherichia coli, UniProt Q47537, T132A); test: biochemical; assay type: binding, E. coli; conditions: Thr132Ala mutant
Method: as §2, §1

[5] = target: TauA Glu106Ala (Escherichia coli, UniProt Q47537, E106A); assay type: binding, E. coli; conditions: ITC, Glu106Ala mutant
Method: as §2
as §1, with “Values of binding constant (Ka, M^−1), enthalpy change (ΔH, J/mol) and binding stoichiometry (n) were allowed to vary (unless mentioned specifically) during the fitting procedure. The dissociation constant (Kd, M) and entropy change (ΔS, J/mol/K) were derived from Ka, ΔH and n accordingly. The Kd value is derived from the absolute value of Ka (Kd = 1/Ka).” left out

[6] = stoichiometry fixed to 0.8 during data fitting
[7] = ITC, 298 K, 20 mM Tris pH 7.5, 150 mM NaCl, read-out: Kd
[8] = ITC, read-out: Kd (apparent affinity)

Chain of TauA Gln30Ala (Q47537 23-320 Q30A): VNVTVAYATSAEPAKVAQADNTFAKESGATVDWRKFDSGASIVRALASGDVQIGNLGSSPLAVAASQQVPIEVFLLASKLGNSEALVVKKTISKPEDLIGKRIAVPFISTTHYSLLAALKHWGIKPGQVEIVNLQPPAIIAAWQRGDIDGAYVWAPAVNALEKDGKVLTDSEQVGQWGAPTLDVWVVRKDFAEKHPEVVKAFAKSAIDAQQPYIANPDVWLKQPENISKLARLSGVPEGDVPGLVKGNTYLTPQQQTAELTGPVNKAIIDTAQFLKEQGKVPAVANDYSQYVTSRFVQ
Chain of TauA Asp205Ala (Q47537 23-320 D205A): as the sequence (Q47537 23-320 Q30A) above, with A8Q, D183A counted along it
Chain of TauA Thr132Ala (Q47537 23-320 T132A): as the sequence (Q47537 23-320 Q30A) above, with A8Q, T110A counted along it
T1 sequence (Q47537 23-320): as the sequence (Q47537 23-320 Q30A) above, with A8Q counted along it
Chain of TauA Glu106Ala (Q47537 23-320 E106A): as the sequence (Q47537 23-320 Q30A) above, with A8Q, E84A counted along it

Structure (SMILES): NCCP(=O)(O)O [2-AEP, 2-Aminoethylphosphonic acid]
- heat of binding to TauA (exothermic/endothermic) ([1]; ITC): endothermic
- ΔH ([1]; ITC, 298 K): 0.016 (±0.03%) kJ/mol
- ΔS ([1]; ITC, 298 K): 2.33 J/mol/K
- Kd ([1]; Kd (apparent affinity), ITC): 649 µM
- Kd ([1]; Kd, ITC, 298 K, 20 mM Tris pH 7.5, 150 mM NaCl): 649 µM
- Stoichiometry [1, 6]: 0.8 ^*

Structure (SMILES): O=S(=O)(O)CCN1CCOCC1 [MES, 2-(N-morpholino)ethanesulfonate]
- heat of binding to TauA (exothermic/endothermic) ([1]; ITC): endothermic
- ΔH ([1]; ITC, 298 K): 4.74 (±0.8%) kJ/mol
- ΔS ([1]; ITC, 298 K): 2.45 J/mol/K
- Kd [1, 7]: 2.85 µM
- Stoichiometry ([1]; ITC, fitted n): 0.868(±0.5%)
- Kd [1, 8]: 2.8 µM

Structure (SMILES): NCCS(=O)(=O)O [taurine, 2-aminoethanesulfonic acid]
- heat of binding to TauA (exothermic/endothermic) ([1]; ITC): exothermic
- ΔH ([1]; ITC, 298 K): −61.04 (±0.08%) kJ/mol
- Kd [1, 7]: 0.0016 µM
- Stoichiometry ([1]; ITC, fitted n): 0.768(±0.38%)
- Stoichiometry [2, 6]: 0.8 ^*
- ΔH ([2]; ITC): −34.83 (±2%) kJ/mol
- ΔS ([2]; ITC): −2.34 J/mol/K
- Kd ([2]; Kd, ITC, 298 K): 22.9 µM
- Kd ([2]; affinity, ITC): 22.9 µM
- ΔH [3]: −17.87 (±8%) kJ/mol
- ΔS [3]: 3.72 J/mol/K
- Stoichiometry ([3]; fitted n): 0.83(±6%)
- Kd ([3]; Kd, 298 K): 3.48 µM
- Kd ([3]; affinity): 3.5 µM
- ΔH ([4]; ITC): −28.76 (±8%) kJ/mol
- ΔS ([4]; ITC): −0.54 J/mol/K
- Kd ([4]; Kd, ITC, 298 K): 20.6 µM
- Stoichiometry [4, 6]: 0.8 ^*
- Kd ([4]; affinity, ITC): 20.6 µM
- taurine binding affinity [5]: detrimental to taurine binding; also recorded: No binding affinity could be measured

Structure (SMILES): NC(=O)CNCCS(=O)(=O)O [ACES, N-(2-acetamido)-2-aminoethanesulfonic acid]
- heat of binding to TauA (exothermic/endothermic) ([1]; ITC): exothermic
- ΔH ([1]; ITC, 298 K): −1.44 (±3.3%) kJ/mol
- ΔS ([1]; ITC, 298 K): 1.87 J/mol/K
- Kd [1, 7]: 7.46 µM
- Stoichiometry ([1]; ITC, fitted n): 0.79(±2.4%)
- Kd [1, 8]: 7.4 µM
